From ChEMBL document CHEMBL3045561, “Feeding deterrents from Zanthoxylum schinifolium against two stored-product insects” (J Agric Food Chem, 2009)

What was measured:
Tribolium castaneum [1] = assay: Feeding deterrent activity against adult Tribolium castaneum (red flour beetle) on compound pre-treated wheat flour disks assessed as relative food consumption rate at 1000 ppm after 3 days by flour disk bioassay (reference value: 143.22 +/-4.32 ug/mg/day); format: functional
Tribolium castaneum [2] = assay: Feeding deterrent activity against adult Tribolium castaneum (red flour beetle) on compound pre-treated wheat flour disks assessed as relative growth rate at 300 ppm after 3 days by flour disk bioassay (reference value: 29.49 +/-1.35 ug/mg/day); format: functional
Tribolium castaneum [3] = assay: Feeding deterrent activity against adult Tribolium castaneum (red flour beetle) on compound pre-treated wheat flour disks assessed as relative food consumption rate at 300 ppm after 3 days by flour disk bioassay (reference value: 143.22 +/-4.32 ug/mg/day); format: functional
Tribolium castaneum [4] = assay: Feeding deterrent activity against adult Tribolium castaneum (red flour beetle) on compound pre-treated wheat flour disks assessed as food utilization rate at 100 ppm after 3 days by flour disk bioassay (reference value: 20.59 +/-1.47%); format: functional
Tribolium castaneum [5] = assay: Feeding deterrent activity against adult Tribolium castaneum (red flour beetle) on compound pre-treated wheat flour disks assessed as relative growth rate at 3 ppm after 3 days by flour disk bioassay (reference value: 29.49 +/-1.35 ug/mg/day); format: functional
Sitophilus zeamais [6] = assay: Feeding deterrent activity against adult Sitophilus zeamais on compound pretreated wheat flour disks assessed as relative food consumption rate at 300 ppm after 3 days by flour disk bioassay (reference value: 122.72 +/-4.32 ug/mg/day); format: functional
Tribolium castaneum [7] = assay: Feeding deterrent activity against adult Tribolium castaneum (red flour beetle) on compound pre-treated wheat flour disks assessed as relative growth rate at 30 ppm after 3 days by flour disk bioassay (reference value: 29.49 +/-1.35 ug/mg/day); format: functional
Sitophilus zeamais [8] = assay: Feeding deterrent activity against adult Sitophilus zeamais on compound pretreated wheat flour disks assessed as relative food consumption rate at 3 ppm after 3 days by flour disk bioassay (reference value: 122.72 +/-4.32 ug/mg/day); format: functional
Tribolium castaneum [9] = assay: Feeding deterrent activity against adult Tribolium castaneum (red flour beetle) on compound pre-treated wheat flour disks assessed as relative food consumption rate at 100 ppm after 3 days by flour disk bioassay (reference value: 143.22 +/-4.32 ug/mg/day); format: functional
Sitophilus zeamais [10] = assay: Feeding deterrent activity against adult Sitophilus zeamais on compound pretreated wheat flour disks assessed as relative food consumption rate at 1000 ppm after 3 days by flour disk bioassay (reference value: 122.72 +/-4.32 ug/mg/day); format: functional
Tribolium castaneum [11] = assay: Feeding deterrent activity against adult Tribolium castaneum (red flour beetle) on compound pre-treated wheat flour disks at 300 ppm after 3 days by flour disk bioassay; format: functional
Tribolium castaneum [12] = assay: Feeding deterrent activity against adult Tribolium castaneum (red flour beetle) on compound pre-treated wheat flour disks assessed as relative growth rate at 10 ppm after 3 days by flour disk bioassay (reference value: 29.49 +/-1.35 ug/mg/day); format: functional
Sitophilus zeamais [13] = assay: Feeding deterrent activity against adult Sitophilus zeamais on compound pretreated wheat flour disks at 300 ppm after 3 days by flour disk bioassay; format: functional
Tribolium castaneum [14] = assay: Feeding deterrent activity against adult Tribolium castaneum (red flour beetle) on compound pre-treated wheat flour disks assessed as food utilization rate at 300 ppm after 3 days by flour disk bioassay (reference value: 20.59 +/-1.47%); format: functional
Sitophilus zeamais [15] = assay: Feeding deterrent activity against adult Sitophilus zeamais on compound pretreated wheat flour disks assessed as relative growth rate at 300 ppm after 3 days by flour disk bioassay (reference value: 13.61 +/-1.13 ug/mg/day); format: functional
Tribolium castaneum [16] = assay: Feeding deterrent activity against adult Tribolium castaneum (red flour beetle) on compound pre-treated wheat flour disks at 3 ppm after 3 days by flour disk bioassay; format: functional
Sitophilus zeamais [17] = assay: Feeding deterrent activity against adult Sitophilus zeamais on compound pretreated wheat flour disks at 100 ppm after 3 days by flour disk bioassay; format: functional
Tribolium castaneum [18] = assay: Feeding deterrent activity against adult Tribolium castaneum (red flour beetle) on compound pre-treated wheat flour disks at 1000 ppm after 3 days by flour disk bioassay; format: functional
Tribolium castaneum [19] = assay: Feeding deterrent activity against adult Tribolium castaneum (red flour beetle) on compound pre-treated wheat flour disks at 30 ppm after 3 days by flour disk bioassay; format: functional
Tribolium castaneum [20] = assay: Feeding deterrent activity against adult Tribolium castaneum (red flour beetle) on compound pre-treated wheat flour disks assessed as relative food consumption rate at 30 ppm after 3 days by flour disk bioassay (reference value: 143.22 +/-4.32 ug/mg/day); format: functional
Sitophilus zeamais [21] = assay: Feeding deterrent activity against adult Sitophilus zeamais on compound pretreated wheat flour disks assessed as food utilization rate at 100 ppm after 3 days by flour disk bioassay (reference value: 11.09 +/-1.12%); format: functional
Tribolium castaneum [22] = assay: Feeding deterrent activity against adult Tribolium castaneum (red flour beetle) on compound pre-treated wheat flour disks assessed as mortality at 300 ppm after 3 days by flour disk bioassay (reference value: 0%); format: functional
Sitophilus zeamais [23] = assay: Feeding deterrent activity against adult Sitophilus zeamais on compound pretreated wheat flour disks at 10 ppm after 3 days by flour disk bioassay; format: functional
Tribolium castaneum [24] = assay: Feeding deterrent activity against adult Tribolium castaneum (red flour beetle) on compound pre-treated wheat flour disks at 100 ppm after 3 days by flour disk bioassay; format: functional
Sitophilus zeamais [25] = assay: Feeding deterrent activity against adult Sitophilus zeamais on compound pretreated wheat flour disks assessed as food utilization rate at 300 ppm after 3 days by flour disk bioassay (reference value: 11.09 +/-1.12%); format: functional
Sitophilus zeamais [26] = assay: Feeding deterrent activity against adult Sitophilus zeamais on compound pretreated wheat flour disks assessed as mortality at 30 ppm after 3 days by flour disk bioassay (reference value: 0%); format: functional
Tribolium castaneum [27] = assay: Feeding deterrent activity against adult Tribolium castaneum (red flour beetle) on compound pre-treated wheat flour disks assessed as mortality at 100 ppm after 3 days by flour disk bioassay (reference value: 0%); format: functional
Sitophilus zeamais [28] = assay: Feeding deterrent activity against adult Sitophilus zeamais on compound pretreated wheat flour disks assessed as relative food consumption rate at 100 ppm after 3 days by flour disk bioassay (reference value: 122.72 +/-4.32 ug/mg/day); format: functional
Sitophilus zeamais [29] = assay: Feeding deterrent activity against adult Sitophilus zeamais on compound pretreated wheat flour disks assessed as relative food consumption rate at 30 ppm after 3 days by flour disk bioassay (reference value: 122.72 +/-4.32 ug/mg/day); format: functional
Sitophilus zeamais [30] = assay: Feeding deterrent activity against adult Sitophilus zeamais on compound pretreated wheat flour disks assessed as food utilization rate at 1000 ppm after 3 days by flour disk bioassay (reference value: 11.09 +/-1.12%); format: functional
Tribolium castaneum [31] = assay: Feeding deterrent activity against adult Tribolium castaneum (red flour beetle) on compound pre-treated wheat flour disks assessed as food utilization rate at 1000 ppm after 3 days by flour disk bioassay (reference value: 20.59 +/-1.47%); format: functional
Tribolium castaneum [32] = assay: Feeding deterrent activity against adult Tribolium castaneum (red flour beetle) on compound pre-treated wheat flour disks after 3 days by flour disk bioassay; format: functional, organism-based
Sitophilus zeamais [33] = assay: Feeding deterrent activity against adult Sitophilus zeamais on compound pretreated wheat flour disks assessed as relative growth rate at 30 ppm after 3 days by flour disk bioassay (reference value: 13.61 +/-1.13 ug/mg/day); format: functional
Tribolium castaneum [34] = assay: Feeding deterrent activity against adult Tribolium castaneum (red flour beetle) on compound pre-treated wheat flour disks assessed as mortality at 10 ppm after 3 days by flour disk bioassay (reference value: 0%); format: functional
Sitophilus zeamais [35] = assay: Feeding deterrent activity against adult Sitophilus zeamais on compound pretreated wheat flour disks assessed as relative growth rate at 1000 ppm after 3 days by flour disk bioassay (reference value: 13.61 +/-1.13 ug/mg/day); format: functional

Compound	Activity (Tribolium castaneum [1]) [µg/mg/day]	Activity (Tribolium castaneum [2]) [µg/mg/day]	Activity (Tribolium castaneum [3]) [µg/mg/day]	ECI (Tribolium castaneum [4]) [%]	Activity (Tribolium castaneum [5]) [µg/mg/day]	Activity (Sitophilus zeamais [6]) [µg/mg/day]	Activity (Tribolium castaneum [7]) [µg/mg/day]	Activity (Sitophilus zeamais [8]) [µg/mg/day]	Activity (Tribolium castaneum [9]) [µg/mg/day]	Activity (Sitophilus zeamais [10]) [µg/mg/day]	FDI (Tribolium castaneum [11]) [%]	Activity (Tribolium castaneum [12]) [µg/mg/day]	FDI (Sitophilus zeamais [13]) [%]	ECI (Tribolium castaneum [14]) [%]	Activity (Sitophilus zeamais [15]) [µg/mg/day]	FDI (Tribolium castaneum [16]) [%]	FDI (Sitophilus zeamais [17]) [%]	FDI (Tribolium castaneum [18]) [%]	FDI (Tribolium castaneum [19]) [%]	Activity (Tribolium castaneum [20]) [µg/mg/day]	other results
CCCCCCCc1cc(=O)c2ccccc2n1C [SCHINIFOLINE]	2.13	1.6	21.29	11.57	28.85	34.51	13.13	122.39	53.37	10.51	85.85	24.24	72.35	7.53	2.04	4.46	59.19	98.34	45.07	79.64	ECI (Sitophilus zeamais [21]): 7.54%; mortality at 300 ppm (Tribolium castaneum [22]): 8%; FDI (Sitophilus zeamais [23]): 10.28%; FDI (Tribolium castaneum [24]): 66.28%; ECI (Sitophilus zeamais [25]): 5.92%; mortality at 30 ppm (Sitophilus zeamais [26]): 2%; mortality at 100 ppm (Tribolium castaneum [27]): 2%; Activity (Sitophilus zeamais [28]): 50.29 µg/mg/day; Activity (Sitophilus zeamais [29]): 89.93 µg/mg/day; ECI (Sitophilus zeamais [30]): 3.84%; ECI (Tribolium castaneum [31]): 3.29%; EC50 (Tribolium castaneum [32]): 47.81 ppm; Activity (Sitophilus zeamais [33]): 9.06 µg/mg/day; mortality at 10 ppm (Tribolium castaneum [34]): 0%; Activity (Sitophilus zeamais [35]): 0.4 µg/mg/day
COc1ccc2c(OC)c3ccoc3nc2c1OC [SKIMMIANINE]	15.72	3.17	31.56	13.72	27.92	45.13	15.31	120.9	61.88	18.31	68.62	24.21	60.24	10.03	3.07	4.31	47.32	89.56	30.12	101.27	ECI (Sitophilus zeamais [21]): 8.37%; mortality at 300 ppm (Tribolium castaneum [22]): 6%; FDI (Sitophilus zeamais [23]): 10.21%; FDI (Tribolium castaneum [24]): 57.45%; ECI (Sitophilus zeamais [25]): 6.81%; mortality at 30 ppm (Sitophilus zeamais [26]): 0%; mortality at 100 ppm (Tribolium castaneum [27]): 2%; Activity (Sitophilus zeamais [28]): 59.65 µg/mg/day; Activity (Sitophilus zeamais [29]): 92.84 µg/mg/day; ECI (Sitophilus zeamais [30]): 4.21%; ECI (Tribolium castaneum [31]): 7.81%; EC50 (Tribolium castaneum [32]): 75.71 ppm; Activity (Sitophilus zeamais [33]): 9.6 µg/mg/day; mortality at 10 ppm (Tribolium castaneum [34]): 0%; Activity (Sitophilus zeamais [35]): 0.77 µg/mg/day
